Key:
Format in all cases: in vivo
[1] = tested on: Surinam grass (Brachiaria decumbens); assay: Test B pre/postemergence; conditions: for Surinam Grass plant response rating: Postemergence; for Plant response rating, Surinam Grass: Preemergence
Outline: (§1)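 Following sowing, compounds in a surfactant-bearing non-phytotoxic solvent were applied preemergence; emerged plants 2 to 18 cm high got postemergence treatment concurrently. Evaluation: 13 to 15 days later, greenhouse, 0–100 visual scale.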

[2] = tested on: barnyardgrass (Echinochloa crus-galli); assay: Test B pre/postemergence; conditions: for Barnyardgrass plant response rating: Postemergence; for Plant response rating, Barnyardgrass: Preemergence
Outline: as §1

[3] = tested on: cocklebur (Xanthium strumarium); assay: Test B pre/postemergence; conditions: for Cocklebur plant response rating: Postemergence; for Plant response rating, Cocklebur: Preemergence
Outline: as §1

corn (Zea mays) = assay: Test B pre/postemergence; conditions: for Corn plant response rating: Postemergence; for Plant response rating, Corn: Preemergence
Outline: as §1

[4] = tested on: crabgrass (Digitaria sanguinalis); assay: Test B pre/postemergence; conditions: for Crabgrass plant response rating: Postemergence; for Plant response rating, Crabgrass: Preemergence
Outline: as §1

[5] = tested on: giant foxtail (Setaria faberii); assay: Test B pre/postemergence; conditions: for Foxtail, Giant plant response rating: Postemergence; for Plant response rating, Foxtail, Giant: Preemergence
Outline: as §1

[6] = tested on: lambsquarters (Chenopodium album); assay: Test B pre/postemergence; conditions: for Lambsquarters plant response rating: Postemergence; for Plant response rating, Lambsquarters: Preemergence
Outline: as §1

[7] = tested on: morningglory (Ipomoea coccinea); assay: Test B pre/postemergence; conditions: for Morningglory plant response rating: Postemergence; for Plant response rating, Morningglory: Preemergence
Outline: as §1

[8] = tested on: pigweed (Amaranthus retroflexus); assay: Test B pre/postemergence; conditions: for Pigweed plant response rating: Postemergence; for Plant response rating, Pigweed: Preemergence
Outline: as §1

[9] = tested on: velvetleaf (Abutilon theophrasti); assay: Test B pre/postemergence; conditions: for Velvetleaf plant response rating: Postemergence; for Plant response rating, Velvetleaf: Preemergence
Outline: as §1

[10] = tested on: wheat (Triticum aestivum); assay: Test B pre/postemergence; conditions: for Wheat plant response rating: Postemergence; for Plant response rating, Wheat: Preemergence
Outline: as §1

[11] = tested on: blackgrass (Alopecurus myosuroides); assay: Test B postemergence; conditions: scale 0 to 100 (0 no effect, 100 complete control)
Outline: as §1

wild oat (Avena fatua) = assay: Test B postemergence; conditions: scale 0 to 100 (0 no effect, 100 complete control)
Outline: as §1

[12] = tested on: barnyardgrass (Echinochloa crus-galli); assay: Test B flooded paddy test; conditions: Flood, scale 0 to 100
Outline: (§2)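 Plants were grown to the 2-leaf stage before treatment, then kept in a greenhouse for 13 to 15 days. Injury was rated visually against untreated controls on a 0 to 100 scale, where 0 is no effect and 100 is complete control.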

[13] = tested on: duck salad (Heteranthera limosa); assay: Test B flooded paddy test; conditions: Flood, scale 0 to 100
Outline: as §2

rice (Oryza sativa) = assay: Test B flooded paddy test; conditions: Flood, scale 0 to 100
Outline: as §2

[14] = tested on: umbrella sedge (Cyperus difformis); assay: Test B flooded paddy test; conditions: Flood, scale 0 to 100
Outline: as §2

[15] = 62 g ai/ha, scale 0 to 100 (0 no effect, 100 complete control)
[16] = 125 g ai/ha, scale 0 to 100 (0 no effect, 100 complete control)
[17] = 62 g ai/ha, scale 0 to 100, 0 no effect, 100 complete control

Structure (SMILES): COC(=O)c1nc(-c2ccc(I)cc2)nc(N)c1Br [Compound 128]
- Surinam Grass plant response rating [1, 15]: 30
- Surinam Grass plant response rating [1, 16]: 40
- Plant response rating, Surinam Grass [1, 17]: 0
- Plant response rating, Surinam Grass [1, 16]: 0
- Barnyardgrass plant response rating [2, 15]: 40
- Barnyardgrass plant response rating [2, 16]: 60
- Plant response rating, Barnyardgrass [2, 17]: 0
- Plant response rating, Barnyardgrass [2, 16]: 10
- Cocklebur plant response rating [3, 15]: 70
- Cocklebur plant response rating [3, 16]: 90
- Plant response rating, Cocklebur [3, 17]: 0
- Plant response rating, Cocklebur [3, 16]: 10
- Corn plant response rating (corn (Zea mays); [15]): 10
- Corn plant response rating (corn (Zea mays); [16]): 70
- Plant response rating, Corn (corn (Zea mays); [17]): 0
- Plant response rating, Corn (corn (Zea mays); [16]): 0
- Crabgrass plant response rating [4, 15]: 20
- Crabgrass plant response rating [4, 16]: 40
- Plant response rating, Crabgrass [4, 17]: 0
- Plant response rating, Crabgrass [4, 16]: 0
- Foxtail, Giant plant response rating [5, 15]: 30
- Foxtail, Giant plant response rating [5, 16]: 50
- Plant response rating, Foxtail, Giant [5, 17]: 0
- Plant response rating, Foxtail, Giant [5, 16]: 0
- Lambsquarters plant response rating [6, 15]: 90
- Lambsquarters plant response rating [6, 16]: 90
- Plant response rating, Lambsquarters [6, 17]: 10
- Plant response rating, Lambsquarters [6, 16]: 50
- Morningglory plant response rating [7, 15]: 40
- Morningglory plant response rating [7, 16]: 90
- Plant response rating, Morningglory [7, 17]: 0
- Plant response rating, Morningglory [7, 16]: 0
- Pigweed plant response rating [8, 15]: 90
- Pigweed plant response rating [8, 16]: 90
- Plant response rating, Pigweed [8, 17]: 10
- Plant response rating, Pigweed [8, 16]: 50
- Velvetleaf plant response rating [9, 15]: 50
- Velvetleaf plant response rating [9, 16]: 80
- Plant response rating, Velvetleaf [9, 17]: 0
- Plant response rating, Velvetleaf [9, 16]: 40
- Wheat plant response rating [10, 15]: 0
- Wheat plant response rating [10, 16]: 20
- Plant response rating, Wheat [10, 17]: 0
- Plant response rating, Wheat [10, 16]: 0
- Blackgrass plant response rating ([11]; 62 g ai/ha): 40
- Blackgrass plant response rating ([11]; 125 g ai/ha): 50
- Oat, Wild plant response rating (wild oat (Avena fatua); 62 g ai/ha): 0
- Oat, Wild plant response rating (wild oat (Avena fatua); 125 g ai/ha): 40
- Plant response rating, Barnyardgrass ([12]; 125 g ai/ha): 0
- Plant response rating, Barnyardgrass ([12]; 500 g ai/ha): 30
- Plant response rating, Ducksalad ([13]; 125 g ai/ha): 90
- Plant response rating, Ducksalad ([13]; 500 g ai/ha): 100
- Plant response rating, Rice (rice (Oryza sativa); 125 g ai/ha): 0
- Plant response rating, Rice (rice (Oryza sativa); 500 g ai/ha): 0
- Plant response rating, Sedge, Umbrella ([14]; 125 g ai/ha): 90
- Plant response rating, Sedge, Umbrella ([14]; 500 g ai/ha): 100

Structure (SMILES): Nc1nc(C2CC2)nc(C(=O)O)c1Cl [Compound 135, 6-amino-5-chloro-2-cyclopropyl-4-pyrimidinecarboxylic acid]
- Surinam Grass plant response rating [1, 15]: 80
- Surinam Grass plant response rating [1, 16]: 80
- Plant response rating, Surinam Grass [1, 17]: 80
- Plant response rating, Surinam Grass [1, 16]: 90
- Barnyardgrass plant response rating [2, 15]: 70
- Barnyardgrass plant response rating [2, 16]: 90
- Plant response rating, Barnyardgrass [2, 17]: 70
- Plant response rating, Barnyardgrass [2, 16]: 90
- Cocklebur plant response rating [3, 15]: 100
- Cocklebur plant response rating [3, 16]: 100
- Plant response rating, Cocklebur [3, 17]: 100
- Plant response rating, Cocklebur [3, 16]: 100
- Corn plant response rating (corn (Zea mays); [15]): 50
- Corn plant response rating (corn (Zea mays); [16]): 80
- Plant response rating, Corn (corn (Zea mays); [17]): 50
- Plant response rating, Corn (corn (Zea mays); [16]): 80
- Crabgrass plant response rating [4, 15]: 60
- Crabgrass plant response rating [4, 16]: 70
- Plant response rating, Crabgrass [4, 17]: 80
- Plant response rating, Crabgrass [4, 16]: 90
- Foxtail, Giant plant response rating [5, 15]: 80
- Foxtail, Giant plant response rating [5, 16]: 80
- Plant response rating, Foxtail, Giant [5, 17]: 60
- Plant response rating, Foxtail, Giant [5, 16]: 90
- Lambsquarters plant response rating [6, 15]: 100
- Lambsquarters plant response rating [6, 16]: 100
- Plant response rating, Lambsquarters [6, 17]: 100
- Plant response rating, Lambsquarters [6, 16]: 100
- Morningglory plant response rating [7, 15]: 100
- Morningglory plant response rating [7, 16]: 100
- Plant response rating, Morningglory [7, 17]: 100
- Plant response rating, Morningglory [7, 16]: 100
- Pigweed plant response rating [8, 15]: 100
- Pigweed plant response rating [8, 16]: 100
- Plant response rating, Pigweed [8, 17]: 100
- Plant response rating, Pigweed [8, 16]: 100
- Velvetleaf plant response rating [9, 15]: 100
- Velvetleaf plant response rating [9, 16]: 100
- Plant response rating, Velvetleaf [9, 17]: 90
- Plant response rating, Velvetleaf [9, 16]: 100
- Wheat plant response rating [10, 15]: 40
- Wheat plant response rating [10, 16]: 60
- Plant response rating, Wheat [10, 17]: 70
- Plant response rating, Wheat [10, 16]: 90
- Blackgrass plant response rating ([11]; 62 g ai/ha): 60
- Blackgrass plant response rating ([11]; 125 g ai/ha): 70
- Oat, Wild plant response rating (wild oat (Avena fatua); 62 g ai/ha): 60
- Oat, Wild plant response rating (wild oat (Avena fatua); 125 g ai/ha): 60
- Plant response rating, Barnyardgrass ([12]; 125 g ai/ha): 30
- Plant response rating, Barnyardgrass ([12]; 500 g ai/ha): 80
- Plant response rating, Ducksalad ([13]; 125 g ai/ha): 60
- Plant response rating, Ducksalad ([13]; 500 g ai/ha): 90
- Plant response rating, Rice (rice (Oryza sativa); 125 g ai/ha): 20
- Plant response rating, Rice (rice (Oryza sativa); 500 g ai/ha): 60
- Plant response rating, Sedge, Umbrella ([14]; 125 g ai/ha): 70
- Plant response rating, Sedge, Umbrella ([14]; 500 g ai/ha): 80
